Patent US20230220347A1, “SCALING UP MYOGENIC TISSUE: LATE PASSAGE MYOGENICITY” (Upside Foods, Inc., priority 2021, published 2023)
Entries after “also recorded” stand apart in the source; their conditions may differ.

Tested on: late passage TERT-immortalized 7A chicken fibroblasts stably transfected with ggMYOD
Test: Myotube formation (MyHC staining) of late passage 7A TERT ggMYOD fibroblasts in different media
Type: cell-based
Settings: 7A TERT ggMyoD cells, PDL >100; sodium butyrate 0.1 mM added to ME9
Procedure: This experiment was designed to assess expression of endogenous downstream myogenic factors (ggMyoG, ggMYMK, and ggMyHC1e) following transfection with a vector encoding ggMYOD in late passage (PDL >100) immortalized fibroblast cells compared to primary fibroblasts. TERT-immortalized 7A fibroblasts were cultured for PDL >100 prior to transfection. For these experiments, a vector including a PGK promoter driving expression of a nucleic acid sequence encoding ggMYOD was transfected into TERT-immortalized 7A chicken fibroblasts (“7A TERT”) or primary fibroblasts using Lipofectamine 3000. Each vector included a puromycin selection cassette to enable selection. Following transfection and selection (0.5 mg/mL puromycin for 4 days), fibroblasts were exposed either to differentiation media (i.e., DMEM/F-12, 2% horse serum) or proliferation media (i.e., ME9; referred to as “undifferentiated” sample (see also culture medias described in FIG. 2)) prior to being assessed for myogenic marker expression using qPCR.
To assess whether the late passage immortalized 7A chicken fibroblasts could be induced to form myotubes, the late passage immortalized 7A chicken fibroblasts stably transfected with ggMYOD (as described above; referred to as 7A TERT ggMYOD) were cultured in media: ME58, ME9, and ME9+0.1 mM sodium butyrate. In FIGS. 13A-C MyHC staining was used to aid identification of myotubes.

CCCC(=O)[O-].[Na+] [sodium butyrate]
differentiation capacity (myotube formation, MyHC staining): dramatic improvement in differentiation capacity; also recorded: significant increase in myogenic differentiation capacity
